Data published in patent US9156810B2, “Treatment of inflammatory bowel disease” (ALLERGAN, INC., priority 2003, dated 2015).

Columns and labels:
hEP4 [1] = target: T1, hEP4 (Homo sapiens (Human), UniProt P35408); test: Radioligand binding ([3H]PGE2), HEK-293 cell membranes expressing EP4 receptor; conditions: top number in Table 2
Protocol: (§1) HEK-293 cells stably expressing the human or feline FP receptor, or EP1, EP2, EP3, or EP4 receptors were washed with TME buffer, scraped from the bottom of the flasks, and homogenized for 30 sec using a Brinkman PT 10/35 polytron. TME buffer was added to achieve a final 40 ml volume in the centrifuge tubes (the composition of TME is 100 mM TRIS base, 20 mM MgCl2, […]; 10N HCl is added to achieve a pH of 7.4).
(§2) The cell homogenate was centrifuged at 19000 r.p.m. for 20 min at 4° C. using a Beckman Ti-60 rotor. The resultant pellet was resuspended in TME buffer to give a final 1 mg/ml protein concentration, as determined by Biorad assay. Radioligand binding competition assays vs. [^3H-]17-phenyl PGF2α, (5 nM) were performed in a 100 μl volume for 60 min. Binding reactions were started by adding plasma membrane fraction. The reaction was terminated by the addition of 4 ml ice-cold TRIS-HCl buffer and rapid filtration through glass fiber GF/B filters using a Brandel cell harvester. The filters were washed 3 times with ice-cold buffer and oven dried for one hour. Non-specific binding was determined with 10 uM unlabeled 17-phenyl PGF2α.
(§3) [^3H-] PGE2 (5 nM; specific activity 180 Ci mmol) was used as the radioligand for EP receptors. Binding studies employing EP1, EP2, EP3, EP4 were performed in duplicate in at least three separate experiments. A 200 μl assay volume was used. Incubations were for 60 min at 25° C. and were terminated by the addition of 4 ml of ice-cold 50 mM TRIS-HCl, followed by rapid filtration through Whatman GF/B filters and three additional 4 ml washes in a cell harvester (Brandel). Non-specific binding determined with 10^−5M of unlabeled PGE2.

hEP3D = hEP3D (Homo sapiens (Human), UniProt P43115); test: Radioligand binding ([3H]PGE2), HEK-293 cell membranes expressing EP3 receptor; conditions: top number in Table 2
Protocol: as §1, §2, §3

hEP4 [2] = target: T1, hEP4; test: FLIPR calcium signal, HEK-293(EBNA) cells expressing hEP4/Gqs5; type: cell-based; conditions: bottom number in Table 2, read-out: hEP4 functional EC50
Protocol: HEK-293(EBNA) cells, stably expressing one type or subtype of recombinant human prostaglandin receptors (prostaglandin receptors expressed: hDP/Gqs5; hEP1; hEP2/Gqs5; hEP3A/Gqi5; hEP4/Gqs5; hFP; hIP; hTP), were cultured in 100 mm culture dishes in high-glucose DMEM medium containing 10% fetal bovine serum, 2 mM 1-glutamine, 250 μg/ml geneticin (G418) and 200 μg/ml hygromycin B as selection markers, and 100 units/ml penicillin G, 100 μg/m streptomycin and 0.25 μg/m amphotericin B.
Cells were seeded at a density of 5×10^4 cells per well in Biocoat® Poly-D-lysine-coated black-wall, clear-bottom 96-well plates (Becton-Dickinson) and allowed to attach overnight in an incubator at 37° C. Cells were then washed two times with HBSS-HEPES buffer (Hanks Balanced Salt Solution without bicarbonate and phenol red, 20 mM HEPES, pH 7.4) using a Denley Cellwash plate washer (Labsystems). After 45 minutes of dye-loading in the dark, using the calcium-sensitive dye Fluo-4 AM at a final concentration of 2 μM, plates were washed four times with HBSS-HEPES buffer to remove excess dye leaving 100 μl in each well. Plates were re-equilibrated to 37° C. for a few minutes.
Cells were excited with an Argon laser at 488 nm, and emission was measured through a 510-570 nm bandwidth emission filter (FLIPR™, Molecular Devices, Sunnyvale, Calif.). […] The peak increase in fluorescence intensity was recorded for each well. On each plate, four wells each served as negative (HBSS-HEPES buffer) and positive controls (standard agonists: BW245C (hDP); PGE2 (hEP1; hEP2/Gqs5; hEP3A/Gqi5; hEP4/Gqs5); PGF2 (hFP); carbacyclin (hIP); U-46619 (hTP), depending on receptor). The peak fluorescence change in each drug-containing well was then expressed relative to the controls.
Compounds were tested in a high-throughput (HTS) or concentration-response (CoRe) format. In the HTS format, forty-four compounds per plate were examined in duplicates at a concentration of 10^−5 M. To generate concentration-response curves, four compounds per plate were tested in duplicates in a concentration range between 10^−5 and 10^−11 M. The duplicate values were averaged.

hEP1 = hEP1 (Homo sapiens (Human), UniProt P34995); test: Radioligand binding ([3H]PGE2), HEK-293 cell membranes expressing EP1 receptor; conditions: top number in Table 2
Protocol: as §1, §2, §3

T1 sequence (P35408 whole entry, looked up): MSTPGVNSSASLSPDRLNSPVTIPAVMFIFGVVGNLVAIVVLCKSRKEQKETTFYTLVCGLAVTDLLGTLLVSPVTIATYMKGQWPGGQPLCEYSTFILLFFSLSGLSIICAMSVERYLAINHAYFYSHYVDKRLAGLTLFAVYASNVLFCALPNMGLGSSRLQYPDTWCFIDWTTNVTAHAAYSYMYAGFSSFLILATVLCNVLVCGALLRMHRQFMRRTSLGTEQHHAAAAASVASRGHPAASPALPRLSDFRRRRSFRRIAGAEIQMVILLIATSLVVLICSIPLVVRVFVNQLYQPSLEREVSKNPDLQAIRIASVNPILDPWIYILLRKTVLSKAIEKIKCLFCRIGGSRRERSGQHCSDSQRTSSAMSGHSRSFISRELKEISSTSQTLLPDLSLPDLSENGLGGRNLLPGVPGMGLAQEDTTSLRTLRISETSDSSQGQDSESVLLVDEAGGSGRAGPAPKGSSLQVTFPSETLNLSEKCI
hEP1, sequence (P34995 whole entry): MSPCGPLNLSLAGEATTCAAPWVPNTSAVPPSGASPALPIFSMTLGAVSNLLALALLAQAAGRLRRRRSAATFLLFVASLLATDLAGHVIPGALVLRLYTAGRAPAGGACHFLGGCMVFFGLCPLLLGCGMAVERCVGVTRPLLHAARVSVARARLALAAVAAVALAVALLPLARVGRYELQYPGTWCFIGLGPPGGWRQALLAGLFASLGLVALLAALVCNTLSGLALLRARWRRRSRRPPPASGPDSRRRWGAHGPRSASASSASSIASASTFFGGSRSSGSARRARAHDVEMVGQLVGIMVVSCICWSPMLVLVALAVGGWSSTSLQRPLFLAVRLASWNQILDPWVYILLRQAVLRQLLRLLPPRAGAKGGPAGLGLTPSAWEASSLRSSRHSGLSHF
hEP3D, sequence (P43115 other isoform, or with tags, fused parts or gaps): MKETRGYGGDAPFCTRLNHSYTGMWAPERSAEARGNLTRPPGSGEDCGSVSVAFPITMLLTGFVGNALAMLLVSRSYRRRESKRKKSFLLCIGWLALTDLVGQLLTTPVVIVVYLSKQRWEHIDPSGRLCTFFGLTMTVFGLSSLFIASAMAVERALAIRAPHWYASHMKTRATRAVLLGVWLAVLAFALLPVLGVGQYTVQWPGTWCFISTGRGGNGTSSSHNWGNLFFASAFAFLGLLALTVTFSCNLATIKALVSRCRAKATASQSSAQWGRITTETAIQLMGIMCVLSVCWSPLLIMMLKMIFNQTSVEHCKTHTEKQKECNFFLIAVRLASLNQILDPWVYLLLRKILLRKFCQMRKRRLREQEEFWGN

## COC(=O)CCCC#CC[C@H]1C(=O)C(C)(C)[C@@H](O)[C@@H]1/C=C/C(O)Cc1cc2ccccc2s1 (single isomer, unassigned) [Compound 72]
hEP4 [1]
  hEP4 radioligand binding IC50: > 10000 nM

## COC(=O)CCC/C=C\C[C@H]1C(=O)C(C)(C)[C@@H](O)[C@@H]1/C=C/C(O)Cc1cc2ccccc2s1 (single isomer, unassigned) [Compound 70]
hEP3D
  hEP3D radioligand binding IC50: > 10000 nM
hEP4 [1]
  IC50: 219 nM

## CC1(C)C(=O)[C@H](SCCCSCC(=O)O)[C@@H](/C=C/C(O)CCc2sc3ccccc3c2Cl)[C@@H]1O (single isomer, unassigned) [Compound 24]
hEP3D
  hEP3D radioligand binding IC50: >>10K
hEP4 [1]
  IC50: 26 nM
hEP4 [2]
  EC50: 0.1 nM

## CCNC(=O)CCC/C=C\C[C@H]1C(=O)C(C)(C)[C@@H](O)[C@@H]1/C=C/C(O)Cc1cc2ccccc2s1 (single isomer, unassigned) [Compound 60]
hEP4 [1]
  hEP4 radioligand binding IC50: > 10000 nM

## CC1(C)C(=O)[C@H](C/C=C\CCCC(=O)O)[C@@H](/C=C/C(O)Cc2cc3ccccc3s2)[C@@H]1O (single isomer, unassigned) [Compound 55]
hEP1
  IC50: 758 nM
hEP3D
  hEP3D radioligand binding IC50: > 10000 nM
hEP4 [1]
  IC50: 310 nM
hEP4 [2]
  EC50: 38 nM

## CC1(C)C(=O)[C@H](C/C=C\CCCC(=O)O)[C@@H](/C=C/C(O)CCc2ccccc2)[C@@H]1O (single isomer, unassigned) [Compound 52]
hEP1
  IC50: 27 nM
hEP3D
  IC50: 60 nM
hEP4 [1]
  IC50: 72 nM
hEP4 [2]
  EC50: 18 nM

## COC(=O)CCC/C=C\C[C@H]1C(=O)C(C)(C)[C@@H](O)[C@@H]1/C=C/C(O)CCc1ccccc1 (single isomer, unassigned) [Compound 51]
hEP4 [1]
  IC50: 700 nM

## CCN(CC)C(=O)CCC/C=C\C[C@H]1C(=O)C(C)(C)[C@@H](O)[C@@H]1/C=C/C(O)Cc1cc2ccccc2s1 (single isomer, unassigned) [Compound 63]
hEP1
  hEP1 radioligand binding IC50: > 10000 nM
hEP4 [1]
  IC50: 478 nM

## COC(=O)CCC/C=C\C[C@H]1C(=O)C(C)(C)[C@@H](O)[C@@H]1/C=C/C(O)CCc1sc2ccccc2c1Cl (single isomer, unassigned) [Compound 39]
hEP4 [1]
  IC50: 2300 nM
hEP4 [2]
  EC50: 141 nM

## COC(=O)CCC/C=C\C[C@H]1C(=O)C(C)(C)[C@@H](O)[C@@H]1/C=C/C(O)Cc1ccccc1 (single isomer, unassigned) [Compound 49]
hEP4 [1]
  IC50: 1400 nM

## CC1(C)C(=O)[C@H](C/C=C\CCCC(=O)O)[C@@H](/C=C/C(O)Cc2ccccc2)[C@@H]1O (single isomer, unassigned) [Compound 47]
hEP1
  IC50: 963 nM
hEP3D
  hEP3D radioligand binding IC50: > 10000 nM
hEP4 [1]
  IC50: 76 nM

## CC1(C)C(=O)[C@H](CC#CCCCC(=O)O)[C@@H](/C=C/C(O)Cc2cc3ccccc3s2)[C@@H]1O (single isomer, unassigned) [Compound 74]
hEP1
  IC50: 2380 nM
hEP4 [1]
  IC50: 256 nM

## COC(=O)CCC/C=C\C[C@H]1C(=O)C(C)(C)[C@@H](O)[C@@H]1/C=C/C(O)Cc1ccccc1 (single isomer, unassigned) [Compound 48]
hEP4 [1]
  IC50: 45 nM

## CCN(CC)C(=O)CCC/C=C\C[C@H]1C(=O)C(C)(C)[C@@H](O)[C@@H]1/C=C/C(O)Cc1cc2ccccc2s1 (single isomer, unassigned) [Compound 62]
hEP4 [1]
  IC50: 832 nM

## COC(=O)CSCCCS[C@H]1C(=O)C(C)(C)[C@@H](O)[C@@H]1/C=C/C(O)CCc1sc2ccccc2c1Cl (single isomer, unassigned) [Compound 22]
hEP4 [1]
  IC50: 300 nM
hEP4 [2]
  EC50: 30 nM

## CC1(C)C(=O)[C@H](C/C=C\CCCC(=O)NCCO)[C@@H](/C=C/C(O)Cc2cc3ccccc3s2)[C@@H]1O (single isomer, unassigned) [Compound 64]
hEP4 [1]
  IC50: 4150 nM

## COC(=O)CCC/C=C\C[C@H]1C(=O)C(C)(C)[C@@H](O)[C@@H]1/C=C/C(O)CCc1sc2ccccc2c1Cl (single isomer, unassigned) [Compound 38]
hEP4 [1]
  IC50: 2700 nM
hEP4 [2]
  EC50: 269 nM

## COC(=O)CCC/C=C\C[C@H]1C(=O)C(C)(C)[C@@H](O)[C@@H]1/C=C/C(O)Cc1cc2ccccc2s1 (single isomer, unassigned) [Compound 71]
hEP4 [1]
  IC50: 10000 nM
